The results in this text go back to patent US20230295119A1, “SUBSTITUTED PYRIDINES FOR THE TREATMENT OF INFLAMMATORY DISEASES” (GOSSAMER BIO SERVICES, INC., priority 2020, published 2023).

Each structure is given as a SMILES string.

For one assay, the target named is human JAK2 (Homo sapiens (Human), UniProt O60674). Kind of assay: JAK2 TR-FRET kinase assay. The class given is biochemical. The settings on record: JAK2 0.025 nM.
The target in another assay is human JAK3 (Homo sapiens (Human), UniProt P52333). Kind of assay: JAK3 TR-FRET kinase assay. Type of assay: biochemical. To be noted: JAK3 0.0125 nM.
The next assay concerns the target TYK2 JH2 domain (Homo sapiens (Human), UniProt P29597). Put plainly: TYK2 JH2 NanoBRET assay. Type of assay: binding. To be noted: Table 20, read-out: TYK2 IC50. The method, boiled down:
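Tracer displacement measured by BRET ratio (acceptor over donor) in live HEK293T cells transfected with a NanoLuc-tagged TYK2 JH2 construct; cells co-exposed to test compound and 0.5 µM final K10 tracer for 2 h before substrate/extracellular inhibitor addition.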
In general terms: In BRET a luciferase serves as donor, and the signal depends on an acceptor being close.

The next assay deals with human JAK1 (Homo sapiens (Human), UniProt P23458). Kind of assay: JAK1 TR-FRET kinase assay. Type of assay: biochemical. To be noted: TR-FRET, JAK1 2.5 nM.
Sequence of human JAK1 (P23458 whole entry): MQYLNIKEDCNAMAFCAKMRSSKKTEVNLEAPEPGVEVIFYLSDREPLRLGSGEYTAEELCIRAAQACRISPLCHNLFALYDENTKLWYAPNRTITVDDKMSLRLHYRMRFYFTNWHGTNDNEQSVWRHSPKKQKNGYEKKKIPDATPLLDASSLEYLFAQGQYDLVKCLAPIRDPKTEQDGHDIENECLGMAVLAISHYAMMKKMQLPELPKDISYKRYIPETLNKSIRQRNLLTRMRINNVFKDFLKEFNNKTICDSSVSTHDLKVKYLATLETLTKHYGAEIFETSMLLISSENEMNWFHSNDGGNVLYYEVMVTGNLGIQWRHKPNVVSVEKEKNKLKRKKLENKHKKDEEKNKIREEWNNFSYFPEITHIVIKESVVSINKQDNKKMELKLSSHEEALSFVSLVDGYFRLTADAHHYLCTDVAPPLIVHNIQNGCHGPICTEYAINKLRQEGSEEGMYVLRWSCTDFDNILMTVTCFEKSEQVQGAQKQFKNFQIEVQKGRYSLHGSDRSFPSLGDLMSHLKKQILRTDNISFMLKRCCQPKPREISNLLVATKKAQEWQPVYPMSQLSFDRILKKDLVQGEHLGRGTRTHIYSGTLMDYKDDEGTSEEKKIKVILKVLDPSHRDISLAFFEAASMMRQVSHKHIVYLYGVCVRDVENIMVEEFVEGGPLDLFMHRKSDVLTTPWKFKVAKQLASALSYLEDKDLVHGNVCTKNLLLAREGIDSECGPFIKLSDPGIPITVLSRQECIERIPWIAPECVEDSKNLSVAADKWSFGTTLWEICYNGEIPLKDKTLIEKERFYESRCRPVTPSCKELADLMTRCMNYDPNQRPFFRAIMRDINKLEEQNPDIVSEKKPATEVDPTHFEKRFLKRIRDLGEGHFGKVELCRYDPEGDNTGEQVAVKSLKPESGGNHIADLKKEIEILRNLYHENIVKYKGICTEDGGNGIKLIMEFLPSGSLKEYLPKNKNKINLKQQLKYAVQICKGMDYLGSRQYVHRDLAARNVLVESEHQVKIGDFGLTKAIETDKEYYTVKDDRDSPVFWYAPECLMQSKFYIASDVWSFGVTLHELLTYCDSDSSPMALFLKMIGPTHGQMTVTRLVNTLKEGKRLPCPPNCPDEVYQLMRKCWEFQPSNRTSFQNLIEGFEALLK

Sequence of human JAK2 (O60674 whole entry): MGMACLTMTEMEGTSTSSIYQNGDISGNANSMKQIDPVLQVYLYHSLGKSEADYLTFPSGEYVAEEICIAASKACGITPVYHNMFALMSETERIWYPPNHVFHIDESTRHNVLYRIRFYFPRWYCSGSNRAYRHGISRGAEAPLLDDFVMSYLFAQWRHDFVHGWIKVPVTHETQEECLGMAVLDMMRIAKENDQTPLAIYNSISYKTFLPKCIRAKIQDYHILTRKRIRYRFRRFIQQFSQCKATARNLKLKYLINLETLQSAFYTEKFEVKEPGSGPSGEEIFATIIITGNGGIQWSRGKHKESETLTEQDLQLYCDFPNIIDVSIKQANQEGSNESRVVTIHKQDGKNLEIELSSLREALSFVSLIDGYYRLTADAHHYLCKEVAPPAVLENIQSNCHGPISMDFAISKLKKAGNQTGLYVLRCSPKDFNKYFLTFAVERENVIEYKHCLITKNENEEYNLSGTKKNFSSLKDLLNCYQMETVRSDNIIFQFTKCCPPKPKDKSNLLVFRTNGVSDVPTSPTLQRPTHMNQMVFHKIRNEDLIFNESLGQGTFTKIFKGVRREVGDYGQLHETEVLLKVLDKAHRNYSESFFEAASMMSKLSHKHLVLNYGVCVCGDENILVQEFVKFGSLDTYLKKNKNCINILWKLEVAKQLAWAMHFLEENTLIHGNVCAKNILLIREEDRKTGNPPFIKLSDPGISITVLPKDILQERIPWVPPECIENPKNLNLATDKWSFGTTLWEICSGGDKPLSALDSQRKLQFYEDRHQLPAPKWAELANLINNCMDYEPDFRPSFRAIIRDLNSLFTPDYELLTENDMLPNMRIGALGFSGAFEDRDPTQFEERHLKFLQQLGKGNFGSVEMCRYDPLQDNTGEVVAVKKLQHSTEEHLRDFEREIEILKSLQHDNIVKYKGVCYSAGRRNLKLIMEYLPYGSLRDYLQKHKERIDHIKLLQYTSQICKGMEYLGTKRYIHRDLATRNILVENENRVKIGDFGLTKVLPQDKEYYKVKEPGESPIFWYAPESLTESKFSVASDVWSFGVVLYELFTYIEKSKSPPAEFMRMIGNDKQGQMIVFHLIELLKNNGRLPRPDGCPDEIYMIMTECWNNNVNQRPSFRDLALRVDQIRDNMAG
Sequence of TYK2 JH2 domain (P29597 589-875): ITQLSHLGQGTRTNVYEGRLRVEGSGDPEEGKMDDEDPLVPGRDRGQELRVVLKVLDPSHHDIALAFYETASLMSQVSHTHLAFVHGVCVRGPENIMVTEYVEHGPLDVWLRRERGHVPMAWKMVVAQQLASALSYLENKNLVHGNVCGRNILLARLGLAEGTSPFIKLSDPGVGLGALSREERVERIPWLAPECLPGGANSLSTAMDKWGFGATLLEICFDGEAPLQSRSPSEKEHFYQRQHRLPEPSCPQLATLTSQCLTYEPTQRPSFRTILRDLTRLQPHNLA
Sequence of human JAK3 (P52333 whole entry, the tested form may be a part): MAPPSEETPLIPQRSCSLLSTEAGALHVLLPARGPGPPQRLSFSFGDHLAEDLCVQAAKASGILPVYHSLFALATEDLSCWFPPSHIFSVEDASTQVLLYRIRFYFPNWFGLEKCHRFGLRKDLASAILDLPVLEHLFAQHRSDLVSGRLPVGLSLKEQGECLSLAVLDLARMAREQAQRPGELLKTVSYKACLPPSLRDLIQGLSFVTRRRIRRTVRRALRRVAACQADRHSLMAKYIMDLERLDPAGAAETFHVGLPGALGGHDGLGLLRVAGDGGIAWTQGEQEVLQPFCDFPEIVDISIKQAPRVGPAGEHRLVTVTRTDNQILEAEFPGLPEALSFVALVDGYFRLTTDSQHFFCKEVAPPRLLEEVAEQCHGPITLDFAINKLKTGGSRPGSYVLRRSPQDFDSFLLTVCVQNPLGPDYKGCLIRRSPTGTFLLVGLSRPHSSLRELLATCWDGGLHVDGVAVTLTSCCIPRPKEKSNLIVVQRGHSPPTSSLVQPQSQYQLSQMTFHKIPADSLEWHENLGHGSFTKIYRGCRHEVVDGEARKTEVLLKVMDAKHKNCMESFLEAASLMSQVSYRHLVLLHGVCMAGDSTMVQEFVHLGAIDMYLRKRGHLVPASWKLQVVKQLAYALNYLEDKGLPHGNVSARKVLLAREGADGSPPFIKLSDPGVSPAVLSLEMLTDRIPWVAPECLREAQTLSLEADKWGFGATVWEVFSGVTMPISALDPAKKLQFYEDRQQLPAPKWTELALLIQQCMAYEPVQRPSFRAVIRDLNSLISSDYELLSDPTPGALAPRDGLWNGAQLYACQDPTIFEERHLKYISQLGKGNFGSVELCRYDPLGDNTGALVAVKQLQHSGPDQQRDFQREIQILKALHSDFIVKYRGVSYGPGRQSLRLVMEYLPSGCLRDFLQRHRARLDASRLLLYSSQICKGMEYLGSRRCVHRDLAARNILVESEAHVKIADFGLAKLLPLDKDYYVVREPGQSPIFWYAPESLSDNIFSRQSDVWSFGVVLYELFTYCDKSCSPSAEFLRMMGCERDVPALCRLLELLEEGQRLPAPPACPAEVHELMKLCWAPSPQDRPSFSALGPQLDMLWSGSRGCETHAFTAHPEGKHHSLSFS

In the case of `CCC(=O)c1cnc(Nc2cnc(OCCN3CC[C@H](F)C3)cn2)cc1Nc1cccc(-c2ncn(C)n2)c1OC` [Compound 18XX], the IC50 – broadly, the concentration that inhibits the measured activity by half – against human JAK2 is not below 500 nM; against human JAK3, not below 500 nM; on TYK2 JH2 domain, 5 to 50 nM; at human JAK1, not below 500 nM.
For the compound `CCC(=O)c1cnc(Nc2ccc(CCN(C)C)nn2)cc1Nc1cccc(-c2ncn(C)n2)c1OC` [Compound 11D], the IC50 is not below 500 nM against human JAK2, not below 500 nM at human JAK3, 5 to 50 nM at TYK2 JH2 domain and not below 500 nM against human JAK1.
For `CCC(=O)c1cnc(Nc2cc(CN3CCCC3)ccn2)cc1Nc1cccc(-c2ncn(C)n2)c1OC` [Compound 9IIII], the IC50 against human JAK2 is 50 to 500 nM; against human JAK3 it was 50 to 500 nM; at TYK2 JH2 domain it was less than 5 nM; at human JAK1, not below 500 nM.
For the compound `CCC(=O)c1cnc(Nc2cnc(CN3CCCC3)cn2)cc1Nc1cccc(-c2ncn(C)n2)c1OC` [Compound 9AAAA], the IC50 was not below 500 nM against human JAK2, not below 500 nM against human JAK3, less than 5 nM on TYK2 JH2 domain and not below 500 nM against human JAK1.
With `CCC(=O)c1cnc(Nc2ccc([C@H](C)N3CC(O)C3)cn2)cc1Nc1cccc(-c2ncn(C)n2)c1OC` [Compound 9GG], the IC50 is not below 500 nM against human JAK2, not below 500 nM against human JAK3, 5 to 50 nM at TYK2 JH2 domain and not below 500 nM against human JAK1.
In the case of `CCC(=O)c1cnc(Nc2cnc(C(NC)C(F)(F)F)cn2)cc1Nc1cccc(-c2ncn(C)n2)c1OC` (centres unmarked) [Compound 9UUU], the IC50 against human JAK2 was not below 500 nM; on human JAK3 it was not below 500 nM; on TYK2 JH2 domain, 5 to 50 nM; on human JAK1, not below 500 nM.
On to `CCC(=O)c1cnc(Nc2ccc(CN(C)CC(F)F)cn2)cc1Nc1cccc(-c2ncn(C)n2)c1OC` [Compound 9Y], for which the IC50 was not below 500 nM against human JAK2, not below 500 nM against human JAK3, 5 to 50 nM at TYK2 JH2 domain and not below 500 nM on human JAK1.
Turning to `CCC(=O)c1cnc(Nc2ncc(OC3COC3)cc2F)cc1Nc1cccc(-c2ncn(C)n2)c1OC` [Compound 18BBBB], the IC50 against human JAK2 is not below 500 nM; on human JAK3 it was not below 500 nM; at TYK2 JH2 domain, 5 to 50 nM; at human JAK1, not below 500 nM.
On to `CCC(=O)c1cnc(Nc2ccc(C(C)NC)nn2)cc1Nc1cccc(-c2ncn(C)n2)c1OC` (centres unmarked) [Compound 9JJJ], for which the IC50 was not below 500 nM on human JAK2, not below 500 nM on human JAK3, 5 to 50 nM on TYK2 JH2 domain and not below 500 nM at human JAK1.
Turning to `CCC(=O)c1cnc(Nc2ccc(CN3CC[C@H](F)C3)cn2)cc1Nc1cccc(-c2ncn(C)n2)c1OC` [Compound 9KK], the IC50 on human JAK2 is not below 500 nM; on human JAK3, not below 500 nM; on TYK2 JH2 domain, less than 5 nM; against human JAK1, not below 500 nM.
Consider `CCC(=O)c1cnc(NC(=O)[C@@H]2C[C@H]2CS(C)(=O)=O)cc1Nc1cccc(-c2ncn(C)n2)c1OC` [Compound 22N], for which the IC50 is not below 500 nM at human JAK2, not below 500 nM on human JAK3, 50 to 500 nM at TYK2 JH2 domain and not below 500 nM on human JAK1.
Turning to `CCC(=O)c1cnc(Nc2ccc(C3(N(C)C)CC3)cn2)cc1Nc1cccc(-c2ncn(C)n2)c1OC` [Compound 9Q], the IC50 on human JAK2 was not below 500 nM; on human JAK3, not below 500 nM; at TYK2 JH2 domain it was less than 5 nM; against human JAK1, not below 500 nM.
On to `CCC(=O)c1cnc(Nc2ccc(OC3CCN(C)CC3)nn2)cc1Nc1cccc(-c2ncn(C)n2)c1OC` [Compound 18EE], for which the IC50 is not below 500 nM against human JAK2, not below 500 nM on human JAK3, less than 5 nM on TYK2 JH2 domain and not below 500 nM on human JAK1.
As for `COc1c(-c2ncn(C)n2)ccnc1Nc1cc(Nc2ccc(-n3ccnc3)cn2)ncc1C(=O)C1CC1` [Compound 15R], the IC50 was not below 500 nM against human JAK2, not below 500 nM on human JAK3, 5 to 50 nM at TYK2 JH2 domain and not below 500 nM on human JAK1.
`CCC(=O)c1cnc(Nc2ccc(O[C@@H]3CCOC3)c(C)n2)cc1Nc1cccc(-c2ncn(C)n2)c1OC` [Compound 18AAAA]: the IC50 on human JAK2 was 50 to 500 nM; against human JAK3, 50 to 500 nM; on TYK2 JH2 domain, less than 5 nM; against human JAK1, not below 500 nM.
Regarding `CCC(=O)c1cnc(Nc2ccc([C@@H](C)N3C[C@@H](O)[C@H](O)C3)cn2)cc1Nc1cccc(-c2ncn(C)n2)c1OC` [Compound 9QQ], the IC50 was not below 500 nM on human JAK2, 50 to 500 nM at human JAK3, 5 to 50 nM at TYK2 JH2 domain and not below 500 nM on human JAK1.
Turning to `CCC(=O)c1cnc(Nc2cnc(OCCN3CC[C@@H](F)C3)cn2)cc1Nc1cccc(-c2ncn(C)n2)c1OC` [Compound 18YY], the half-inhibitory concentration (IC50) is not below 500 nM against human JAK2, not below 500 nM at human JAK3, 5 to 50 nM on TYK2 JH2 domain and not below 500 nM at human JAK1.
For the compound `CCC(=O)c1cnc(Nc2ccc(S(=O)(=O)C3CC3)cn2)cc1Nc1nccc(-c2ncn(C)n2)c1OC` [Compound 13K], the IC50 on human JAK2 was 50 to 500 nM; against human JAK3, 50 to 500 nM; on TYK2 JH2 domain, 5 to 50 nM; against human JAK1 it was not below 500 nM.
Take `CCC(=O)c1cnc(NC(=O)[C@@H]2C[C@@H]2NC(=O)OC(C)(C)C)cc1Nc1cccc(-c2ncn(C)n2)c1OC` [Compound 22J]: the IC50 against human JAK2, against human JAK3, at TYK2 JH2 domain and at human JAK1 was not below 500 nM in each case.
Consider `CCC(=O)c1cnc(Nc2ccc(C(NC)C(F)(F)F)cn2)cc1Nc1cccc(-c2ncn(C)n2)c1OC` (centres unmarked) [Compound 9S], for which the IC50 was 50 to 500 nM at human JAK2, not below 500 nM at human JAK3, less than 5 nM on TYK2 JH2 domain and not below 500 nM at human JAK1.
Regarding `CCC(=O)c1cnc(Nc2ccc(OC[C@@H](O)CO)cn2)cc1Nc1cccc(-c2ncn(C)n2)c1OC` [Compound 18F], the IC50 was not below 500 nM at human JAK2, 50 to 500 nM at human JAK3, 5 to 50 nM on TYK2 JH2 domain and not below 500 nM against human JAK1.
Consider `CCC(=O)c1cnc(NC(=O)C2CC2c2ccn(C)n2)cc1Nc1cccc(-c2ncn(C)n2)c1OC` (centres unmarked) [Compound 22M], for which the IC50 was not below 500 nM against human JAK2, not below 500 nM at human JAK3, 50 to 500 nM at TYK2 JH2 domain and not below 500 nM on human JAK1.
As for `CCC(=O)c1cnc(Nc2ccc(S(C)(=O)=O)cn2)cc1Nc1cccc(CO)c1OC` [Compound 13P], the IC50 was not below 500 nM at human JAK2, 50 to 500 nM against human JAK3, 5 to 50 nM on TYK2 JH2 domain and not below 500 nM against human JAK1.
For `CCC(=O)c1cnc(Nc2ncc(-n3ccccc3=O)cc2F)cc1Nc1cccc(-c2ncn(C)n2)c1OC` [Compound 15AA], the IC50 at human JAK2 is not below 500 nM; against human JAK3, not below 500 nM; at TYK2 JH2 domain, 50 to 500 nM; against human JAK1, not below 500 nM.
Turning to `CCC(=O)c1cnc(NC(=O)C2CC2c2cnn(C)c2)cc1Nc1cccc(-c2ncn(C)n2)c1OC` (centres unmarked) [Compound 22A, N-(4-((2-methoxy-3-(1-methyl-1H-1,2,4-tliazol-3-yl)phenyl)amino)-5-propionylpyridin-2-yl)-2-(1-methyl-1H-pyrazol-4-yl)cyclopropane-1-carboxamide], the IC50 at human JAK2 is not below 500 nM; against human JAK3, not below 500 nM; at TYK2 JH2 domain it was 5 to 50 nM; on human JAK1, not below 500 nM.
Regarding `CCC(=O)c1cnc(Nc2ccc(CNC)cn2)cc1Nc1cccc(-c2ncn(C)n2)c1OC` [Compound 9C], the IC50 against human JAK2 is not below 500 nM; on human JAK3, not below 500 nM; at TYK2 JH2 domain it was less than 5 nM; against human JAK1 it was not below 500 nM.
In the case of `CCC(=O)c1cnc(Nc2cnc(CCNC)cn2)cc1Nc1cccc(-c2ncn(C)n2)c1OC` [Compound 11H], the IC50 against human JAK2 is not below 500 nM; on human JAK3, not below 500 nM; on TYK2 JH2 domain, 50 to 500 nM; on human JAK1, not below 500 nM.
Regarding `CCC(=O)c1cnc(Nc2cnc(O[C@@H]3CCN(C)C3)cn2)cc1Nc1cccc(-c2ncn(C)n2)c1OC` [Compound 18UU], the IC50 on human JAK2 is not below 500 nM; against human JAK3, not below 500 nM; at TYK2 JH2 domain it was 5 to 50 nM; at human JAK1, not below 500 nM.
`CCC(=O)c1cnc(Nc2ccn([C@H]3C[C@@H](C#N)C3)n2)cc1Nc1cccc(-c2ncn(C)n2)c1OC` [Compound 21N]: the IC50 is not below 500 nM against human JAK2, not below 500 nM at human JAK3, 5 to 50 nM on TYK2 JH2 domain and not below 500 nM against human JAK1.
`COc1c(Nc2cc(Nc3ccc(-c4ncn(C)n4)cn3)ncc2C(=O)C2CC2)cccc1-c1ncn(C)n1` [Compound 15N]: the IC50 on human JAK2 was not below 500 nM; at human JAK3 it was not below 500 nM; at TYK2 JH2 domain, 5 to 50 nM; at human JAK1, not below 500 nM.
Turning to `CCC(=O)c1cnc(Nc2ccc(CN3CC(OC)C3)cn2)cc1Nc1cccc(-c2ncn(C)n2)c1OC` [Compound 9DD], the IC50 was not below 500 nM against human JAK2, not below 500 nM against human JAK3, less than 5 nM on TYK2 JH2 domain and not below 500 nM against human JAK1.
For the compound `CCC(=O)c1cnc(NC(=O)C2CC2)cc1Nc1cc(CO)cc(-c2ncn(C)n2)c1OC` [Compound 25D], the IC50 on human JAK2 was not below 500 nM; at human JAK3 it was not below 500 nM; at TYK2 JH2 domain, 50 to 500 nM; against human JAK1 it was not below 500 nM.
Regarding `CCC(=O)c1cnc(Nc2ccc(OC(C)(C)C(=O)O)c(C)n2)cc1Nc1cccc(-c2ncn(C)n2)c1OC` [Compound 18L], the IC50 is 50 to 500 nM against human JAK2, 50 to 500 nM on human JAK3, not below 500 nM on TYK2 JH2 domain and not below 500 nM against human JAK1.
With `CCC(=O)c1cnc(NC(=O)C2CC2)cc1Nc1cc(COC)cc(-c2ncn(C)n2)c1OC` [Compound 25E], the IC50 against human JAK2 was not below 500 nM; against human JAK3 it was not below 500 nM; on TYK2 JH2 domain, 50 to 500 nM; at human JAK1, not below 500 nM.
`CCC(=O)c1cnc(Nc2cc(C(=O)O)ccn2)cc1Nc1cccc(-c2ncn(C)n2)c1OC` [Compound 8E]: the IC50 against human JAK2, against human JAK3, on TYK2 JH2 domain and against human JAK1 was not below 500 nM in each case.
